Test results taken from patent publication US9670213B2, “Pteridine ketone derivative and applications thereof as EGFR, BLK, and FLT3 inhibitor” (EAST CHINA UNIVERSITY OF SCIENCE AND TECHNOLOGY, priority 2012, dated 2017).

What was measured:
Format in all cases: biochemical
wild-type EGFR = wild-type EGFR (Homo sapiens (Human), UniProt P00533); assay: In vitro EGFR kinase activity assay (Z'-Lyte); conditions: EGFR WT; read-out: Inhibitory activity on EGFR kinase (IC50, nM) WT;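 further: Ten-point dose series from 5.1×10^−11 to 1.0×10^−6 mol/L, kinase reaction 1.5 h at room temperature, then 1 h development cleaving unphosphorylated peptide, phosphopeptide as 100% phosphorylation control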
Method: Inhibitory effects in vitro of the compounds provided in the present invention on EGFR kinase activity was tested as follows:
10 concentration gradients, from 5.1×10^−11 mol/L to 1.0×10^−6 mol/L, were set for all of the compounds to be tested.
10 μL of kinase reaction system comprised 2.5 μL of compound solution, 5 μL of Kinase/peptide mixture, and 2.5 μL of ATP solution. 5 μL of phosphopeptide solution was used in place of kinase/peptide mixture as 100% phosphorylation control. […] After thoroughly mixing the solution within the plate, the plate was incubated at room temperature for 1.5 hours. 5 μL of DevelopmentSolution was added into each well, and then the plate was incubated at room temperature for another 1 hour, and non-phosphorylated peptide was cleaved within this period. Finally, the reaction was quenched by adding 5 μL of Stop Reagent. The Plate was measured with EnVision Multilabel Reader (Perkin Elmer). Experimental data were calculated by using GraphPad Prism version 4.0. Each experiment was repeated more than three times.

BLK [1] = biological target: T1, BLK (Homo sapiens (Human), UniProt P51451); assay: BLK kinase activity assay (Caliper); conditions: read-out: Inhibitory activity on kinase (IC50, nM) BLK
AUR B = AUR B (Homo sapiens (Human), UniProt Q96GD4); assay: Kinase selectivity analysis (Caliper mobility shift assay); conditions: for inhibition at 1 µM: read-out: % inhibition (1 μM), 1 μM; for inhibition at 10 µM: read-out: % inhibition (10 μM), 10 μM
Method: (§1) Kinase selectivity analysis: kinase selectivity experiment was performed by Shanghai ChemPartner using Caliper assay screening platform. All of kinases and other materials were purchased from commercial companies.
(§2) 3. Preparation of assay plate: 5 μL of solution from each well of the 96-well temporary plate was added into a 384-well plate, and the experiment was independently repeated.
(§3) 5. Caliper readings: experimental data were collected on Caliper.
(§4) 6. Curve fitting: 1) conversion data were replicated from Caliper program. 2) the conversion value was converted into inhibition rate, inhibition rate %=(maximum−conversion value)/(maximum−minimum)*100, wherein “maximum” represents DMSO control, and minimum represents the low control.

BLK [2] = biological target: T1, BLK; assay: as above; conditions: for inhibition at 1 µM: read-out: % inhibition (1 μM), 1 μM; for inhibition at 10 µM: read-out: % inhibition (10 μM), 10 μM
Method: as §1, §2, §3, §4

C-MET = C-MET (Homo sapiens (Human), UniProt P08581); assay: as above; conditions: for inhibition at 1 µM: read-out: % inhibition (1 μM), 1 μM; for inhibition at 10 µM: read-out: % inhibition (10 μM), 10 μM
Method: as §1, §2, §3, §4

CDK2 = CDK2 (Homo sapiens (Human), UniProt P24941); assay: as above; conditions: for inhibition at 1 µM: read-out: % inhibition (1 μM), CDK2, 1 μM; for inhibition at 10 µM: read-out: % inhibition (10 μM), CDK2, 10 μM
Method: as §1, §2, §3, §4

ERK1 = ERK1 (Homo sapiens (Human), UniProt P27361); assay: as above; conditions: for inhibition at 1 µM: read-out: % inhibition (1 μM), ERK1, 1 μM; for inhibition at 10 µM: read-out: % inhibition (10 μM), ERK1, 10 μM
Method: as §1, §2, §3, §4

FGFR1 = FGFR1 (Homo sapiens (Human), UniProt P11362); assay: as above; conditions: for inhibition at 1 µM: read-out: % inhibition (1 μM), FGFR1, 1 μM; for inhibition at 10 µM: read-out: % inhibition (10 μM), FGFR1, 10 μM
Method: as §1, §2, §3, §4

FLT1 = FLT1 (Homo sapiens (Human), UniProt P17948); assay: as above; conditions: for inhibition at 1 µM: read-out: % inhibition (1 μM), FLT1, 1 μM; for inhibition at 10 µM: read-out: % inhibition (10 μM), FLT1, 10 μM
Method: as §1, §2, §3, §4

FLT3 = FLT3 (Homo sapiens (Human), UniProt P36888); assay: as above; conditions: for inhibition at 1 µM: read-out: % inhibition (1 μM), FLT3, 1 μM; for inhibition at 10 µM: read-out: % inhibition (10 μM), FLT3, 10 μM
Method: as §1, §2, §3, §4

GSK3b = GSK3b (Homo sapiens (Human), UniProt P49841); assay: as above; conditions: for inhibition at 1 µM: read-out: % inhibition (1 μM), 1 μM; for inhibition at 10 µM: read-out: % inhibition (10 μM), 10 μM
Method: as §1, §2, §3, §4

HER2 = HER2 (Homo sapiens (Human), UniProt P04626); assay: as above; conditions: for inhibition at 1 µM: read-out: % inhibition (1 μM), HER2, 1 μM; for inhibition at 10 µM: read-out: % inhibition (10 μM), HER2, 10 μM
Method: as §1, §2, §3, §4

HER4 = HER4 (Homo sapiens (Human), UniProt Q15303); assay: as above; conditions: for inhibition at 1 µM: read-out: % inhibition (1 μM), HER4, 1 μM; for inhibition at 10 µM: read-out: % inhibition (10 μM), HER4, 10 μM
Method: as §1, §2, §3, §4

IKKB = IKKB (Homo sapiens (Human), UniProt O14920); assay: as above; conditions: for inhibition at 1 µM: read-out: % inhibition (1 μM), 1 μM; for inhibition at 10 µM: read-out: % inhibition (10 μM), 10 μM
Method: as §1, §2, §3, §4

JAK2 = JAK2 (Homo sapiens (Human), UniProt O60674); assay: as above; conditions: for inhibition at 1 µM: read-out: % inhibition (1 μM), JAK2, 1 μM; for inhibition at 10 µM: read-out: % inhibition (10 μM), JAK2, 10 μM
Method: as §1, §2, §3, §4

KDR = KDR (Homo sapiens (Human), UniProt P35968); assay: as above; conditions: for inhibition at 1 µM: read-out: % inhibition (1 μM), 1 μM; for inhibition at 10 µM: read-out: % inhibition (10 μM), 10 μM
Method: as §1, §2, §3, §4

LYNA = LYNA (Homo sapiens (Human), UniProt P07948); assay: as above; conditions: for inhibition at 1 µM: read-out: % inhibition (1 μM), 1 μM; for inhibition at 10 µM: read-out: % inhibition (10 μM), 10 μM
Method: as §1, §2, §3, §4

P38a = P38a (Homo sapiens (Human), UniProt Q16539); assay: as above; conditions: for inhibition at 1 µM: read-out: % inhibition (1 μM), 1 μM; for inhibition at 10 µM: read-out: % inhibition (10 μM), 10 μM
Method: as §1, §2, §3, §4

PDGFRa = PDGFRa (Homo sapiens (Human), UniProt P16234); assay: as above; conditions: for inhibition at 1 µM: read-out: % inhibition (1 μM), 1 μM; for inhibition at 10 µM: read-out: % inhibition (10 μM), 10 μM
Method: as §1, §2, §3, §4

PDGFRb = PDGFRb (Homo sapiens (Human), UniProt P09619); assay: as above; conditions: for inhibition at 1 µM: read-out: % inhibition (1 μM), 1 μM; for inhibition at 10 µM: read-out: % inhibition (10 μM), 10 μM
Method: as §1, §2, §3, §4

PIM1 = PIM1 (Homo sapiens (Human), UniProt P11309); assay: as above; conditions: for inhibition at 1 µM: read-out: % inhibition (1 μM), PIM1, 1 μM; for inhibition at 10 µM: read-out: % inhibition (10 μM), PIM1, 10 μM
Method: as §1, §2, §3, §4

SRC = SRC (Homo sapiens (Human), UniProt P12931); assay: as above; conditions: for inhibition at 1 µM: read-out: % inhibition (1 μM), 1 μM; for inhibition at 10 µM: read-out: % inhibition (10 μM), 10 μM
Method: as §1, §2, §3, §4

cKit = cKit (Homo sapiens (Human), UniProt P10721); assay: as above; conditions: for inhibition at 1 µM: read-out: % inhibition (1 μM), 1 μM; for inhibition at 10 µM: read-out: % inhibition (10 μM), 10 μM
Method: as §1, §2, §3, §4

Sequence of PDGFRa (P16234 24-1089, species assumed): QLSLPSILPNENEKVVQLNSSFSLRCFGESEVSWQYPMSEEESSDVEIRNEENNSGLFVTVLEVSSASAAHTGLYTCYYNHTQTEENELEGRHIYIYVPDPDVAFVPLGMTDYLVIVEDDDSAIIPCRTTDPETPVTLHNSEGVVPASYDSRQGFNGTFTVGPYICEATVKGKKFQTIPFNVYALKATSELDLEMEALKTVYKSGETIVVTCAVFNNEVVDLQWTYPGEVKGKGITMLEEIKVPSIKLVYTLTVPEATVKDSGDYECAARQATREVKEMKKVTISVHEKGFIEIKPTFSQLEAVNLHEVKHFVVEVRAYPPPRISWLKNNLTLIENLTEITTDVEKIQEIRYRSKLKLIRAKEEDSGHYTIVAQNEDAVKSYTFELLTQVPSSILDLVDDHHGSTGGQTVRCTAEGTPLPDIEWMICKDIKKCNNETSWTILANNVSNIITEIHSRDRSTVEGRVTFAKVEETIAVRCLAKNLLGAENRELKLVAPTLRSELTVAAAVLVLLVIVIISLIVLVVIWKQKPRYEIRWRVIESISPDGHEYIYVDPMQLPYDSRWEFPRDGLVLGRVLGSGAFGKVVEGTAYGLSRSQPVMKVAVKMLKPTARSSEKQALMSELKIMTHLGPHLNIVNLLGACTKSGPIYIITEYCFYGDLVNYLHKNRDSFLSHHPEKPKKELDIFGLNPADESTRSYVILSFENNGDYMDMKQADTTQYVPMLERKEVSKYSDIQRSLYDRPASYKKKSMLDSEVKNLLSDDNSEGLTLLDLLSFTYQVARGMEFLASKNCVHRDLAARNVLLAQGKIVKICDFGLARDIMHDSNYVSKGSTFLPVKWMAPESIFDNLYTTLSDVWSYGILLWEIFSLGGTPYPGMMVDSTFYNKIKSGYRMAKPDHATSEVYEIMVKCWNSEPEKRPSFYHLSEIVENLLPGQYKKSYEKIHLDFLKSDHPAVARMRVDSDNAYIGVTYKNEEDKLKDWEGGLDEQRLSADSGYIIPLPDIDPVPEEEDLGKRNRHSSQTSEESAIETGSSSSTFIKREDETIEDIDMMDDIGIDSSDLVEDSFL
T1 sequence (P51451 whole entry): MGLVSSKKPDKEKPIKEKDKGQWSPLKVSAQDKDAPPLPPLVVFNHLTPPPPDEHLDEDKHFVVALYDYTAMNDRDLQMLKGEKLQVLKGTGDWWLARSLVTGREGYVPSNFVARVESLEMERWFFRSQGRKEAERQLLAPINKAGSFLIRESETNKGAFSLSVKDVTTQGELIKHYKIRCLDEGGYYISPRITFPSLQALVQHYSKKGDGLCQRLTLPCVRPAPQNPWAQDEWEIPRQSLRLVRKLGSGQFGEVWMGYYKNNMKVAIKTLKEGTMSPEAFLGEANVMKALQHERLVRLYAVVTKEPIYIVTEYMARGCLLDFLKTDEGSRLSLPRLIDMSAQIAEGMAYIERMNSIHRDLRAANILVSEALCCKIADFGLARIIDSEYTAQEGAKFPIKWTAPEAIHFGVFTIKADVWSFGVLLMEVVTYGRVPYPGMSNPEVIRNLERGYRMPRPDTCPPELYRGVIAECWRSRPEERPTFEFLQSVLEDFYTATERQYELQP
Sequence of FGFR1 (P11362 22-822, species assumed): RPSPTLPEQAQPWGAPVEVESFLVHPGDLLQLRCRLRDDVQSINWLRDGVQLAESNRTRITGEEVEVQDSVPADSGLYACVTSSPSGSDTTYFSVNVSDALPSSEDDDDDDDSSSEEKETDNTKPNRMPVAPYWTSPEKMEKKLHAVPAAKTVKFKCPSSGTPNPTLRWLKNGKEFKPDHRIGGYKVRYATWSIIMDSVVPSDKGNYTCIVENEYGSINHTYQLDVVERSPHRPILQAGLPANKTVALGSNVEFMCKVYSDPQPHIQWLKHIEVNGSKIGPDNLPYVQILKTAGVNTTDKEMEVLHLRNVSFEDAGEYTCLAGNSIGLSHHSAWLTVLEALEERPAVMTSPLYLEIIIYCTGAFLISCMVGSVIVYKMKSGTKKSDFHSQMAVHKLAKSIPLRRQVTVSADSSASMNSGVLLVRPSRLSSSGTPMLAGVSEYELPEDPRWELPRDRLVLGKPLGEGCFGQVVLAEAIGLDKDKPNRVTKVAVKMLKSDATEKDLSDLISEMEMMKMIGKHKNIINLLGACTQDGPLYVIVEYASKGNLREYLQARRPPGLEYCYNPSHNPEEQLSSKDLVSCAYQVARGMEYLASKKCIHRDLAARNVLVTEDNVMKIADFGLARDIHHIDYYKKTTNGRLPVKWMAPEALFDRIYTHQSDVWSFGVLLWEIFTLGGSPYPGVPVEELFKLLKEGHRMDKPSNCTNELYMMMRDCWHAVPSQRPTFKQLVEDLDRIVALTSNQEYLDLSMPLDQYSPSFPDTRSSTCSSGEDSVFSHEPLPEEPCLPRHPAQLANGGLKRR
Sequence of ERK1 (P27361 whole entry, species assumed): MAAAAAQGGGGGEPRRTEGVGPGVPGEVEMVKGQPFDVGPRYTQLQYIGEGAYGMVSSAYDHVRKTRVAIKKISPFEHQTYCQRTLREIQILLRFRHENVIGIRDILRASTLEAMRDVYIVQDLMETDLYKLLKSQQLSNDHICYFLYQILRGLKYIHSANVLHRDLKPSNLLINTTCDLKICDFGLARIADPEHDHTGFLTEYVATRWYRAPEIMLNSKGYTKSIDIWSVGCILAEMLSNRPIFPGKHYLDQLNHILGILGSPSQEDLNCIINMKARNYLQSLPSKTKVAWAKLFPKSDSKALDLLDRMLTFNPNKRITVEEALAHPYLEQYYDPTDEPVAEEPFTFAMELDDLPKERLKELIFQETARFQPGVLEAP
Sequence of PIM1 (P11309 whole entry, species assumed): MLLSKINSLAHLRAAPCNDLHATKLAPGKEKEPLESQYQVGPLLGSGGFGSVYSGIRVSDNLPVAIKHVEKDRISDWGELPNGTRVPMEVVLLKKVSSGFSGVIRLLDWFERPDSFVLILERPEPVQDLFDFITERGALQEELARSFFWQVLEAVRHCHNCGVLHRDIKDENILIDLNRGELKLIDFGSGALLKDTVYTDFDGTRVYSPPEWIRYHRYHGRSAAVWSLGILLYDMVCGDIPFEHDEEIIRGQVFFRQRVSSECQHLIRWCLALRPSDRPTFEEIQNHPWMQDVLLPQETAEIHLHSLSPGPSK
Sequence of FLT3 (P36888 27-993): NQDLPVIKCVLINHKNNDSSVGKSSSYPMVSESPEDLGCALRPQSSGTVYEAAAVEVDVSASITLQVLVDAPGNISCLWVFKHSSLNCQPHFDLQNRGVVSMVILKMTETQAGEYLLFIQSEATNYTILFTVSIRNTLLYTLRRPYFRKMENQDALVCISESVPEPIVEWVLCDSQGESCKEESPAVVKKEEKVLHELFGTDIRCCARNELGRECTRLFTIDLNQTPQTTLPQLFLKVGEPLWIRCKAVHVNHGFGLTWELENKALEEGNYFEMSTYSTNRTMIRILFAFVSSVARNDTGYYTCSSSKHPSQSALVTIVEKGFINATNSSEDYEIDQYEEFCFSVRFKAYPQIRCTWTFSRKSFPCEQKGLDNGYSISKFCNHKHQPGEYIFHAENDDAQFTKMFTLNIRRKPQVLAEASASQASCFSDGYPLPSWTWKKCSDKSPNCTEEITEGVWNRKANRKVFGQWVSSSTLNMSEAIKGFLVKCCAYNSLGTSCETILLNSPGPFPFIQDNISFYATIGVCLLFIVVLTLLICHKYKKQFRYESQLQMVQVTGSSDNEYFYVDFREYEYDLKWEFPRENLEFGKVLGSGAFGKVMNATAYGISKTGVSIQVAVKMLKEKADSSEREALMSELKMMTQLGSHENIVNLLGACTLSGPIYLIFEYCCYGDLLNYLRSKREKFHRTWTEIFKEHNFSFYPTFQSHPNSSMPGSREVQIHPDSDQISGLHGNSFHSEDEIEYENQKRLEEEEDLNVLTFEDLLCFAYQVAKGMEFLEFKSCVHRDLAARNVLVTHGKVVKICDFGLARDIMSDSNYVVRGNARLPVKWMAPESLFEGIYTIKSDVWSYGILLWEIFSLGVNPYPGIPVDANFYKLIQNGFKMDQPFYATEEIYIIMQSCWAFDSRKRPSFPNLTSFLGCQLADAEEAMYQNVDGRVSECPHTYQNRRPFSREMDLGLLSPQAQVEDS
Sequence of P38a (Q16539 whole entry): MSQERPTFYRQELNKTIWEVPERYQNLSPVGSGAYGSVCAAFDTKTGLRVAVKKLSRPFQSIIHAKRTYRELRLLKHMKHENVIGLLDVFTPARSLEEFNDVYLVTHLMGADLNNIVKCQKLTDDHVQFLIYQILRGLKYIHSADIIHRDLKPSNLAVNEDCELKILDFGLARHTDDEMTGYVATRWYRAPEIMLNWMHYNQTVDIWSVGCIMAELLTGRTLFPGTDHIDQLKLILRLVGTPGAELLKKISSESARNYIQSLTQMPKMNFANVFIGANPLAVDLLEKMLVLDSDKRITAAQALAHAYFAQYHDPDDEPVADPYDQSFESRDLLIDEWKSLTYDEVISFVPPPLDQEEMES
Sequence of GSK3b (P49841 whole entry, species assumed): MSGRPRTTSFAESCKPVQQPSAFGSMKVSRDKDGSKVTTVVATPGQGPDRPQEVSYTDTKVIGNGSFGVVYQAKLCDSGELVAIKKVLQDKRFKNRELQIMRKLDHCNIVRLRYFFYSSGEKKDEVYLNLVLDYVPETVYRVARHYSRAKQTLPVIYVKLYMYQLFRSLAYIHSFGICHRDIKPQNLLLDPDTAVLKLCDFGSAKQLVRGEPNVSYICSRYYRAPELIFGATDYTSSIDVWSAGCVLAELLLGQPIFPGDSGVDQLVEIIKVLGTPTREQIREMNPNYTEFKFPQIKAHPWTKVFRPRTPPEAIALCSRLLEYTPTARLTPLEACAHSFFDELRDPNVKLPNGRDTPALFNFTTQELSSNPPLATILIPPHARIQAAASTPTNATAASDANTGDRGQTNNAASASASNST

C=CC(=O)Nc1cccc(-n2c(=O)cnc3cnc(Nc4ccc(N5CCN(C)CC5)cc4)nc32)c1 [Compound 020, N-(3-(2-(4-(4-methyl-1-piperazinyl)-phenylamino)-7-oxo-8(7H)-pteridin-yl)phenyl) acrylamide]
IC50 (wild-type EGFR): 1.47 nM | IC50 (BLK [1]): < 14 nM | inhibition at 1 µM (AUR B): 52% | inhibition at 10 µM (AUR B): 87% | inhibition at 1 µM (BLK [2]): 99% | inhibition at 10 µM (BLK [2]): 100% | inhibition at 1 µM (C-MET): 27% | inhibition at 10 µM (C-MET): 53% | inhibition at 1 µM (CDK2): 18% | inhibition at 10 µM (CDK2): 49% | inhibition at 1 µM (ERK1): 1.3% | inhibition at 10 µM (ERK1): 19% | inhibition at 1 µM (FGFR1): 19% | inhibition at 10 µM (FGFR1): 63% | inhibition at 1 µM (FLT1): 17% | inhibition at 10 µM (FLT1): 58% | inhibition at 1 µM (FLT3): 82% | inhibition at 10 µM (FLT3): 99% | inhibition at 1 µM (GSK3b): 16% | inhibition at 10 µM (GSK3b): 34% | inhibition at 1 µM (HER2): 97% | inhibition at 10 µM (HER2): 98% | inhibition at 1 µM (HER4): 60% | inhibition at 10 µM (HER4): 72% | inhibition at 1 µM (IKKB): 9.4% | inhibition at 10 µM (IKKB): 2% | inhibition at 1 µM (JAK2): 22% | inhibition at 10 µM (JAK2): 36% | inhibition at 1 µM (KDR): 25% | inhibition at 10 µM (KDR): 73% | inhibition at 1 µM (LYNA): 11% | inhibition at 10 µM (LYNA): 40% | inhibition at 1 µM (P38a): 2.8% | inhibition at 10 µM (P38a): 21% | inhibition at 1 µM (PDGFRa): 4.9% | inhibition at 10 µM (PDGFRa): 35% | inhibition at 1 µM (PDGFRb): 42% | inhibition at 10 µM (PDGFRb): 84% | inhibition at 1 µM (PIM1): 8.2% | inhibition at 10 µM (PIM1): 54% | inhibition at 1 µM (SRC): 27% | inhibition at 10 µM (SRC): 72% | inhibition at 1 µM (cKit): -12% | inhibition at 10 µM (cKit): -3.2%

C=CC(=O)Nc1cccc(-n2c(=O)cnc3cnc(Nc4ccc(N5CCN(C)CC5)cc4OC)nc32)c1 [Compound 032, N-(3-(2-(2-methoxy-4-(4-methyl-1-piperazinyl)-phenylamino)-7-oxo-8(7H)-pteridin-yl)phenyl)acrylamide]
IC50 (wild-type EGFR): 3.67 nM | IC50 (BLK [1]): 463 nM | inhibition at 1 µM (AUR B): 32% | inhibition at 10 µM (AUR B): 69% | inhibition at 1 µM (BLK [2]): 85% | inhibition at 10 µM (BLK [2]): 99% | inhibition at 1 µM (C-MET): 13% | inhibition at 10 µM (C-MET): 28% | inhibition at 1 µM (CDK2): 25% | inhibition at 10 µM (CDK2): 48% | inhibition at 1 µM (ERK1): 11% | inhibition at 10 µM (ERK1): -4% | inhibition at 1 µM (FGFR1): 7.9% | inhibition at 10 µM (FGFR1): 42% | inhibition at 1 µM (FLT1): 9.4% | inhibition at 10 µM (FLT1): 11% | inhibition at 1 µM (FLT3): 60% | inhibition at 10 µM (FLT3): 91% | inhibition at 1 µM (GSK3b): 12% | inhibition at 10 µM (GSK3b): 16% | inhibition at 1 µM (HER2): 89% | inhibition at 10 µM (HER2): 100% | inhibition at 1 µM (HER4): 60% | inhibition at 10 µM (HER4): 77% | inhibition at 1 µM (IKKB): -3.3% | inhibition at 10 µM (IKKB): -4.3% | inhibition at 1 µM (JAK2): 9.9% | inhibition at 10 µM (JAK2): 22% | inhibition at 1 µM (KDR): 3.8% | inhibition at 10 µM (KDR): 29% | inhibition at 1 µM (LYNA): 6.1% | inhibition at 10 µM (LYNA): 20% | inhibition at 1 µM (P38a): -5.6% | inhibition at 10 µM (P38a): 1.2% | inhibition at 1 µM (PDGFRa): 1.2% | inhibition at 10 µM (PDGFRa): 18% | inhibition at 1 µM (PDGFRb): 14% | inhibition at 10 µM (PDGFRb): 61% | inhibition at 1 µM (PIM1): 2.1% | inhibition at 10 µM (PIM1): 8.9% | inhibition at 1 µM (SRC): 6.6% | inhibition at 10 µM (SRC): 33% | inhibition at 1 µM (cKit): -9.3% | inhibition at 10 µM (cKit): -4.8%
